# In PubChem BioAssay AID2060903 (Molecular Pharmacology Branch, DTP, NCI, 2025):
# Tested on: 377384-186-R-J1-PDC complex spheroid viability
# Assay: Anticancer human tumor 377384-186-R-J1-PDC patient-derived pancreatic carcinoma cell line growth inhibition [RAS]
# Details: for IC50: curve of first compound; for viability, T/C: stronger effect = lower value
# Summary of the method: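 Tumour cells grown as complex spheroids with HUVEC endothelial cells and mesenchymal stem cells, treated with RAS pathway inhibitor combinations. Each agent spans half-log steps from near clinical Cmax, or 10 microM where Cmax is unknown.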
# 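Also: spheroids exposed to compounds for seven days before readout.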
structure (smiles),measurement,setting,value
CC(C)n1nc(-c2ccc3oc(N)nc3c2)c2c(N)ncnc21 + C=CC(=O)N1CCN(c2nc(OCC3CCCN3C)nc3c(F)c(-c4nc(N)cc(C)c4C(F)(F)F)c(Cl)cc23)C(C)C1,IC50,second compound 0.00316 µM,12.2 nM
same,IC50,second compound 0.01 µM,15 nM
same,IC50,second compound 0.0316 µM,15.7 nM
same,IC50,second compound 0.1 µM,11.3 nM
same,IC50,second compound 0.316 µM,12.7 nM
same,IC50,second compound 1 µM,15.2 nM
same,"viability, T/C","second compound 0.00316 µM, first compound 0.000316 µM",93.6%
same,"viability, T/C","second compound 0.00316 µM, first compound 0.001 µM",80.3%
same,"viability, T/C","second compound 0.00316 µM, first compound 0.00316 µM",76%
same,"viability, T/C","second compound 0.00316 µM, first compound 0.01 µM",50.8%
same,"viability, T/C","second compound 0.00316 µM, first compound 0.0316 µM",35.4%
same,"viability, T/C","second compound 0.00316 µM, first compound 0.1 µM",21.1%
same,"viability, T/C","second compound 0.01 µM, first compound 0.000316 µM",87.2%
same,"viability, T/C","second compound 0.01 µM, first compound 0.001 µM",83.1%
same,"viability, T/C","second compound 0.01 µM, first compound 0.00316 µM",68.2%
same,"viability, T/C","second compound 0.01 µM, first compound 0.01 µM",59.4%
same,"viability, T/C","second compound 0.01 µM, first compound 0.0316 µM",36.6%
same,"viability, T/C","second compound 0.01 µM, first compound 0.1 µM",19.9%
same,"viability, T/C","second compound 0.0316 µM, first compound 0.000316 µM",90.5%
same,"viability, T/C","second compound 0.0316 µM, first compound 0.001 µM",76.3%
same,"viability, T/C","second compound 0.0316 µM, first compound 0.00316 µM",64.7%
same,"viability, T/C","second compound 0.0316 µM, first compound 0.01 µM",61.8%
same,"viability, T/C","second compound 0.0316 µM, first compound 0.0316 µM",40%
same,"viability, T/C","second compound 0.0316 µM, first compound 0.1 µM",17.4%
same,"viability, T/C","second compound 0.1 µM, first compound 0.000316 µM",91.5%
same,"viability, T/C","second compound 0.1 µM, first compound 0.001 µM",77.2%
same,"viability, T/C","second compound 0.1 µM, first compound 0.00316 µM",67.4%
same,"viability, T/C","second compound 0.1 µM, first compound 0.01 µM",50.5%
same,"viability, T/C","second compound 0.1 µM, first compound 0.0316 µM",37.9%
same,"viability, T/C","second compound 0.1 µM, first compound 0.1 µM",23.7%
same,"viability, T/C","second compound 0.316 µM, first compound 0.000316 µM",81.3%
same,"viability, T/C","second compound 0.316 µM, first compound 0.001 µM",82.2%
same,"viability, T/C","second compound 0.316 µM, first compound 0.00316 µM",70%
same,"viability, T/C","second compound 0.316 µM, first compound 0.01 µM",48.5%
same,"viability, T/C","second compound 0.316 µM, first compound 0.0316 µM",40%
same,"viability, T/C","second compound 0.316 µM, first compound 0.1 µM",18%
same,"viability, T/C","second compound 1 µM, first compound 0.000316 µM",89.7%
same,"viability, T/C","second compound 1 µM, first compound 0.001 µM",89.2%
same,"viability, T/C","second compound 1 µM, first compound 0.00316 µM",81.7%
same,"viability, T/C","second compound 1 µM, first compound 0.01 µM",55.4%
same,"viability, T/C","second compound 1 µM, first compound 0.0316 µM",37.7%
same,"viability, T/C","second compound 1 µM, first compound 0.1 µM",20.4%
Nc1ccn(C2OC(CO)C(O)C2(F)F)c(=O)n1 (centres undefined) + CCn1c(-c2cccnc2C(C)OC)c2c3cc(ccc31)N1CCOC(CC(NC(=O)C(C(C)C)N(C)C(=O)C3(F)CCN(C(=O)C#CC(C)(C)N(C)C)CC3)C(=O)N3CCCC(N3)C(=O)OCC(C)(C)C2)C1,IC50,second compound 0.000949 µM,11.3 nM
same,IC50,second compound 0.003 µM,9.69 nM
same,IC50,second compound 0.00949 µM,12.6 nM
same,IC50,second compound 0.03 µM,11.8 nM
same,IC50,second compound 0.0949 µM,9.29 nM
same,IC50,second compound 0.3 µM,7.06 nM
same,"viability, T/C","second compound 0.000949 µM, first compound 0.00316 µM",87.1%
same,"viability, T/C","second compound 0.000949 µM, first compound 0.01 µM",53.8%
same,"viability, T/C","second compound 0.000949 µM, first compound 0.0316 µM",19.4%
same,"viability, T/C","second compound 0.000949 µM, first compound 0.1 µM",7.57%
same,"viability, T/C","second compound 0.000949 µM, first compound 0.316 µM",5.68%
same,"viability, T/C","second compound 0.000949 µM, first compound 1 µM",3.18%
same,"viability, T/C","second compound 0.003 µM, first compound 0.00316 µM",94.7%
same,"viability, T/C","second compound 0.003 µM, first compound 0.01 µM",48.4%
same,"viability, T/C","second compound 0.003 µM, first compound 0.0316 µM",23.4%
same,"viability, T/C","second compound 0.003 µM, first compound 0.1 µM",9.1%
same,"viability, T/C","second compound 0.003 µM, first compound 0.316 µM",4.5%
same,"viability, T/C","second compound 0.003 µM, first compound 1 µM",3.68%
same,"viability, T/C","second compound 0.00949 µM, first compound 0.00316 µM",96.1%
same,"viability, T/C","second compound 0.00949 µM, first compound 0.01 µM",57.7%
same,"viability, T/C","second compound 0.00949 µM, first compound 0.0316 µM",19.2%
same,"viability, T/C","second compound 0.00949 µM, first compound 0.1 µM",8.08%
same,"viability, T/C","second compound 0.00949 µM, first compound 0.316 µM",5.38%
same,"viability, T/C","second compound 0.00949 µM, first compound 1 µM",4.57%
same,"viability, T/C","second compound 0.03 µM, first compound 0.00316 µM",90.9%
same,"viability, T/C","second compound 0.03 µM, first compound 0.01 µM",55.3%
same,"viability, T/C","second compound 0.03 µM, first compound 0.0316 µM",17.6%
same,"viability, T/C","second compound 0.03 µM, first compound 0.1 µM",5.8%
same,"viability, T/C","second compound 0.03 µM, first compound 0.316 µM",5.88%
same,"viability, T/C","second compound 0.03 µM, first compound 1 µM",3.65%
same,"viability, T/C","second compound 0.0949 µM, first compound 0.00316 µM",79.1%
same,"viability, T/C","second compound 0.0949 µM, first compound 0.01 µM",47.8%
same,"viability, T/C","second compound 0.0949 µM, first compound 0.0316 µM",20.1%
same,"viability, T/C","second compound 0.0949 µM, first compound 0.1 µM",7.12%
same,"viability, T/C","second compound 0.0949 µM, first compound 0.316 µM",4.37%
same,"viability, T/C","second compound 0.0949 µM, first compound 1 µM",4.2%
same,"viability, T/C","second compound 0.3 µM, first compound 0.00316 µM",71.9%
same,"viability, T/C","second compound 0.3 µM, first compound 0.01 µM",40.6%
same,"viability, T/C","second compound 0.3 µM, first compound 0.0316 µM",13%
same,"viability, T/C","second compound 0.3 µM, first compound 0.1 µM",5.77%
same,"viability, T/C","second compound 0.3 µM, first compound 0.316 µM",4.01%
same,"viability, T/C","second compound 0.3 µM, first compound 1 µM",3.34%
